Data as given in ChEMBL document CHEMBL1132608, “Structure-activity relationship of diaryl phosphonate esters as potent irreversible dipeptidyl peptidase IV inhibitors” (J Med Chem, 1999).

How the values were obtained:
[1] = Functional stability in plasma was estimated by fitting the inverse of apparent IC50 values verses time with a single-exponential decay; assay type: ADME, cell-free
[2] = target: Dipeptidyl peptidase 4 (Mus musculus) (UniProt P28843)
Description: Effect on the activity of Dipeptidylpeptidase II (DPP II) is evaluated at the IC50 concentration for DPPIV.

Homo sapiens [3] = species: Homo sapiens; assay: cells
[4] = target: T1, Prolyl endopeptidase (Homo sapiens) (UniProt P48147); assay: Effect on the activity of prolyl endopeptidase (PEP) is evaluated at the IC50 concentration for DPPIV.
T1 sequence (whole entry): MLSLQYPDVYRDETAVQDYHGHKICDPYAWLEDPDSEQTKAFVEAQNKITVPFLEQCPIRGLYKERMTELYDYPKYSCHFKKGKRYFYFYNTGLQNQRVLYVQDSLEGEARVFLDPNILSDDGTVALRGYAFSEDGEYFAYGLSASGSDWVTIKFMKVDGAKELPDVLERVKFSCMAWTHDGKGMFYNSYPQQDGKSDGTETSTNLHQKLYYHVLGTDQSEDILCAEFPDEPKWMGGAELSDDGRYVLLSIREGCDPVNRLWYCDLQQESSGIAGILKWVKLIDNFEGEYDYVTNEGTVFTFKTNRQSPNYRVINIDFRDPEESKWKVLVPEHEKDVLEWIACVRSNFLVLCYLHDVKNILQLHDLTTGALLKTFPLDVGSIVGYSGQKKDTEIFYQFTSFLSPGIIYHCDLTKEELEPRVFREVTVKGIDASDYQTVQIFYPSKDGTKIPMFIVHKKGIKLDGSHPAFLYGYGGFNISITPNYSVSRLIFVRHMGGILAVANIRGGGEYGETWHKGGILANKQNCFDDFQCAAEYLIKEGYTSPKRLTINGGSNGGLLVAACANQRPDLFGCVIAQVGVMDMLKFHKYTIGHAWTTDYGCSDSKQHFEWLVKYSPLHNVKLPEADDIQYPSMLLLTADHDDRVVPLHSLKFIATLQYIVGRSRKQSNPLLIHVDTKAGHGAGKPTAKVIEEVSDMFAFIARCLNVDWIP

[5] = target: Dipeptidyl peptidase 4 (Mus musculus) (UniProt P28843); remark: listed apart in the source
Description: Effect on the activity of Dipeptidylpeptidase II (DPP II) is evaluated at a concentration of 1 mM.

Homo sapiens [6] = species: Homo sapiens; assay: Effect on the activity of elastase is evaluated at a concentration of 1 mM.; assay type: functional
[7] = target: T1, Prolyl endopeptidase (Homo sapiens); assay: Effect on the activity of prolyl endopeptidase (PEP) is evaluated at 1 mM.
[8] = Effect on the activity of membrane alanyl aminopeptidase (MAAP) is evaluated at the IC50 concentration for DPPIV.
Dipeptidyl peptidase 4 = Dipeptidyl peptidase 4 (Homo sapiens, UniProt P27487)
Description: In vitro inhibition of human Dipeptidylpeptidase IV.

[9] = target: Aminopeptidase N (Homo sapiens) (UniProt P15144); assay: Effect on the activity of membrane alanyl aminopeptidase (MAAP) is evaluated at a concentration of 1 mM.
Homo sapiens [10] = species: Homo sapiens; assay: Effect on the activity of elastase was determined as IC50; assay type: functional

Sequence of Dipeptidyl peptidase 4 (Mus musculus) (P28843 whole entry, looked up): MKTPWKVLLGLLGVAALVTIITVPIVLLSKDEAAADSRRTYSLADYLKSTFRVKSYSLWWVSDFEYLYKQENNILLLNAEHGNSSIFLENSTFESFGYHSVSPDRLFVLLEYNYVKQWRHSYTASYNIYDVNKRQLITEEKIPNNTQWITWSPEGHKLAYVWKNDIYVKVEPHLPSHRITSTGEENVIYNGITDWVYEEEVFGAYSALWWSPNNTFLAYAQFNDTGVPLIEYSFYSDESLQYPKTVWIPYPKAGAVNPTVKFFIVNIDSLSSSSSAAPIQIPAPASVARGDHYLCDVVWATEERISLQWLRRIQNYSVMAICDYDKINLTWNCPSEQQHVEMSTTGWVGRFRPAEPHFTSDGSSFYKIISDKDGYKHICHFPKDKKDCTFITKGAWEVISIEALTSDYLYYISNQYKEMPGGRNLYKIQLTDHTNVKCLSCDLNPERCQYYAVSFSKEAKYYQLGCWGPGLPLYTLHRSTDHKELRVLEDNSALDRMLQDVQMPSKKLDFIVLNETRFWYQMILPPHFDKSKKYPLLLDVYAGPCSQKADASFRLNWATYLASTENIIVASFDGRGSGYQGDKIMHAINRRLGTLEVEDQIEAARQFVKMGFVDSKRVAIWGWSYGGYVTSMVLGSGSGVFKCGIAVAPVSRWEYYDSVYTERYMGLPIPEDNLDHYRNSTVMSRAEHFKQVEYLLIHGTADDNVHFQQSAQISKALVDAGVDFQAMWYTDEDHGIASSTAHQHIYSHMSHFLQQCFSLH
Sequence of Dipeptidyl peptidase 4 (P27487 whole entry): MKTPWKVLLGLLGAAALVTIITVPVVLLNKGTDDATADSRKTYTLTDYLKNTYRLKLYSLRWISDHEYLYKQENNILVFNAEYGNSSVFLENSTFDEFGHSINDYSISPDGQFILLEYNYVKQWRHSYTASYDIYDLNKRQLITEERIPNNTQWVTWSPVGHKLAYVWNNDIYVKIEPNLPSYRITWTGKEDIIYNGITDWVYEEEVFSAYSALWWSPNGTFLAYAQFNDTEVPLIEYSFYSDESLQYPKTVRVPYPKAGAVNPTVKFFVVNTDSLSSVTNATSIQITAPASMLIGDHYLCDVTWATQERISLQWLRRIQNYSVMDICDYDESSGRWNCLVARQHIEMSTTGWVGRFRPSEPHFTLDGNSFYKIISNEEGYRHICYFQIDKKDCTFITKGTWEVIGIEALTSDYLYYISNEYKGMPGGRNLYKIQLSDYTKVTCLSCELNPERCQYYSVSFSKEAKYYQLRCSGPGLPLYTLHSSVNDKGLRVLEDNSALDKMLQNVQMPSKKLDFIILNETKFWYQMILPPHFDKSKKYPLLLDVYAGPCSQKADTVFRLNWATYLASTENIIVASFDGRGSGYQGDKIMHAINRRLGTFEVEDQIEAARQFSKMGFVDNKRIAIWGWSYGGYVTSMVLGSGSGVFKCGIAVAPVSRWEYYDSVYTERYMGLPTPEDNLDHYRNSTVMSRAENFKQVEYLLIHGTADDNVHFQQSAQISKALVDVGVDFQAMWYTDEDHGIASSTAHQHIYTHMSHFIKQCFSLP
Sequence of Aminopeptidase N (Homo sapiens) (P15144 whole entry): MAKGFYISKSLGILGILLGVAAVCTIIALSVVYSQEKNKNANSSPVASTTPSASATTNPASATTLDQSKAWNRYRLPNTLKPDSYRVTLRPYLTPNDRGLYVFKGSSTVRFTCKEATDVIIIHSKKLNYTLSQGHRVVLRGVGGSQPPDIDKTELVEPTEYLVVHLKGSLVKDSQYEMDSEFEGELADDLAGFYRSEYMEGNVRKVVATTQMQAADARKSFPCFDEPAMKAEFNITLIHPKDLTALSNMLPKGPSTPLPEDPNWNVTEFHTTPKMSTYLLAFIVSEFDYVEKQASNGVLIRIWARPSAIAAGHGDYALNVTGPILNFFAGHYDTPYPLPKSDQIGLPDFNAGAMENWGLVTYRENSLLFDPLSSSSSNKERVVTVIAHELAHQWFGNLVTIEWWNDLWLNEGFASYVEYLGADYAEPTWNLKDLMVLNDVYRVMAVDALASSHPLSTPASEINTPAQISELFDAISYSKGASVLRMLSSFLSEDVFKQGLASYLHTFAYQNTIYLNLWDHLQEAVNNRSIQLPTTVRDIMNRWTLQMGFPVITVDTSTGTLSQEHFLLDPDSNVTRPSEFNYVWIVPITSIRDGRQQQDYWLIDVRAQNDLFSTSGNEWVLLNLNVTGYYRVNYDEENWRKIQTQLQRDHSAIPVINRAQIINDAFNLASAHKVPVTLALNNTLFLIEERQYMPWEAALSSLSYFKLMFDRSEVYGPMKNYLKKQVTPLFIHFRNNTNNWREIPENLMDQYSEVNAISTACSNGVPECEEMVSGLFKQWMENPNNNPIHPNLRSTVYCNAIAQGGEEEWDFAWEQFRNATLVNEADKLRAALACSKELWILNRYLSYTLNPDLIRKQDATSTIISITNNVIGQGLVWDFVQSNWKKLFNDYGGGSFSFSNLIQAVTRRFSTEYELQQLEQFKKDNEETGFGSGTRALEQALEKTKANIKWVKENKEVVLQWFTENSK

SMILES	half-life [1] [min]	Specificity [4]	Specificity [7]	IC50 (Dipeptidyl peptidase 4) [µM]	other results
Cl.O=C([C@H]1CCCN1)N1CCCC1P(=O)(Oc1ccccc1)Oc1ccccc1 (stereo not given in full)	300	107	71	–	Specificity [2]: 102; IC50 (Homo sapiens [3]): 100 µM; Specificity [5]: 73; Specificity (Homo sapiens [6]): 82; Specificity [8]: 100
O=C(C1CCCN1)N1CCCC1P(=O)(OCC(Cl)(Cl)Cl)OCC(Cl)(Cl)Cl (stereo not given)	–	–	–	1800	–
CC(=O)Nc1ccc(OP(=O)(Oc2ccc(NC(C)=O)cc2)C2CCCN2C(=O)C2CCCN2)cc1.Cl (stereo not given)	–	96	60	–	Specificity [2]: 100; Specificity [5]: 83; Specificity (Homo sapiens [6]): 105; Specificity [9]: 96; Specificity [8]: 99
Cl.O=C([C@@H]1CCCN1)N1CCCC1P1(=O)Oc2ccccc2-c2ccccc2O1 (stereo not given in full)	6	–	–	31	–
Cl.O=C(CNC(=O)c1ccccc1)Nc1ccc(OP(=O)(Oc2ccc(NC(=O)CNC(=O)c3ccccc3)cc2)C2CCCN2C(=O)C2CCCN2)cc1 (stereo not given)	93	92	32	–	–
COC(=O)CCNC(=O)c1ccc(OP(=O)(Oc2ccc(C(=O)NCCC(=O)OC)cc2)C2CCCN2C(=O)C2CCCN2)cc1.Cl (stereo not given)	26	83	0	–	–
COc1ccc(OP(=O)(Oc2ccc(OC)cc2)C2CCCN2C(=O)C2CCCN2)cc1.Cl (stereo not given)	470	–	–	22	–
CCOC(=O)CNC(=O)c1ccc(OP(=O)(Oc2ccc(C(=O)NCC(=O)OCC)cc2)C2CCCN2C(=O)C2CCCN2)cc1.Cl (stereo not given)	35	85	1	–	Specificity [2]: 78; Specificity [5]: 66; IC50 (Homo sapiens [10]): 102 µM; Specificity (Homo sapiens [6]): 6; Specificity [9]: 94
Cl.O=C(C1CCCN1)N1CCCC1P(=O)(Oc1ccc(NN2CCCC2)cc1)Oc1ccc(NN2CCCC2)cc1 (stereo not given)	–	–	–	5	–
Cl.O=C(C1CCCN1)N1CCCC1P(=O)(Oc1ccc(O)cc1)Oc1ccc(O)cc1 (stereo not given)	> 200	–	–	190	–
COC(=O)c1ccc(OP(=O)(Oc2ccc(C(=O)OC)cc2)C2CCCN2C(=O)C2CCCN2)cc1 (stereo not given)	–	73	4	–	–
O=C(C1CCCN1)N1CCCC1P(=O)(OCC(F)(F)F)OCC(F)(F)F (stereo not given)	–	–	–	9100	–
Cl.NCC(=O)Nc1ccc(OP(=O)(Oc2ccc(NC(=O)CN)cc2)C2CCCN2C(=O)C2CCCN2)cc1 (stereo not given)	28	–	–	–	–
Cl.NC(=O)Nc1cccc(OP(=O)(OC2=CC=CC(NC(N)=O)C2)C2CCCN2C(=O)C2CCCN2)c1 (stereo not given)	–	–	–	2.3	–
CS(=O)(=O)Nc1ccc(OP(=O)(Oc2ccc(NS(C)(=O)=O)cc2)C2CCCN2C(=O)C2CCCN2)cc1.Cl (stereo not given)	150	73	4	–	–
CC(=O)Nc1cccc(OP(=O)(Oc2cccc(NC(C)=O)c2)C2CCCN2C(=O)C2CCCN2)c1.Cl (stereo not given)	220	–	–	–	–
COC(=O)C(Cc1ccc(OP(=O)(Oc2ccc(CC(NC(C)=O)C(=O)OC)cc2)C2CCCN2C(=O)C2CCCN2)cc1)NC(C)=O (stereo not given)	–	102	35	–	–
C[C@H](N)C(=O)Nc1ccc(OP(=O)(Oc2ccc(NC(=O)[C@@H](C)N)cc2)C2CCCN2C(=O)C2CCCN2)cc1.Cl (stereo not given in full)	8	88	47	0.6	–
CCCNC(=O)c1ccc(OP(=O)(Oc2ccc(C(=O)NCCC)cc2)C2CCCN2C(=O)C2CCCN2)cc1.Cl (stereo not given)	12	97	5	–	–
